From US6716883B1, “Composition useful to treat periodontal disease” (priority 1998, dated 2004)

Legend:
Format in all cases: cell-based
[1] = system: chick periosteal osteogenesis (CPO) cultures; experiment: Newly synthesized 14C-labeled collagen type I in CPO cultures
Experimental: (§1) For the purposes of this investigation, the effects of a potent aryl hydrocarbon, TCDD (2,3,7,8-tetrachlorodibenzo-p-dioxin or dioxin) on the early events occurring during osteogenesis were determined. The CPO model traverses a number of phases of osteogenesis. Therefore, it was possible to design temporal or “window” experiments in order to determine the phases of osteogenesis that were sensitive to TCDD and/or resveratrol. […] All cultures were maintained for the entire 6-day period. The compounds were administered over four different temporal phases, as outlined below in the time-line diagram: a) days 0-6; b) days 0-2; c) days 2-4 or d) days 4-6 (Note: all cultures were stopped at 6 days). Results were compared to e) vehicle alone over days 0-6. [drawing 1]
Radiolabeled collagen was measured in CPO cultures incubated with ^14C-glycine (Amersham, 59 mCi/mMole) at a concentration of 10 μci/ml media in each group over days 4-6. The cultures were hydrolyzed in 0.1 ml of 0.1N HCl and vortexed. After 15 minutes, the supernatant was removed and saved in a 2 ml eppendorf tube. The culture was transferred to a 0.5 ml eppendorf tube containing 0.1 ml of pepsin (50 μg/ml in 0.1% glacial acetic acid) for further digestion of labeled collagen. These were maintained in a 15° C. water bath for 5 hours, vortexing the samples every hour. The supernatant was transferred to a new 0.5 ml eppendorf tube and was then lyophilized overnight. The amount of radiolabeled collagen was determined by gel electrophoresis as described hereunder. The lyophilized samples were reconstituted with 0.1 ml of a solution made of 70% sample buffer (10 mM Tris.HCl and 1 mM EDTA, pH 8.0) (Sigma-Aldrich Canada Ltd., Oakville, Canada), 2.5% SDS (Sigma), 5% β-mercaptoethanol (Sigma) and 0.01% bromophenol-blue (Sigma). […]
Fluorography was used to analyze the amount of newly synthesized ^14C-labeled collagen in each sample. […] The intensity of the resultant bands on the film was quantified using a laser densitometer to give a measure of the amount of newly synthesized collagen in each sample.

[2] = system: rat bone marrow cell line (RBMCL); experiment: APA in rat bone marrow cell line (RBMCL)
[3] = system: rat SBMC (stromal bone marrow cell) line; experiment: AP activity in rat stromal bone marrow cell (SBMC) line
Experimental: Cells for the rat SBMC model were obtained from Dr. Sandu Pitaru (Tel Aviv University, Israel) and maintained in T25 tissue culture flasks (Sarstedt, Newton, N.C., USA) in a medium composed of αMEM+RNA+DNA+antibiotic supplemented with 10% fetal calf serum, 10 mM β-glycerophosphate, 10^−8M dexamethasone, 50 μg/ml vitamin C and 3 ng/ml fibroblast growth factor. The media were changed every 48 hours and the cells subcultured when almost confluent (approximately every 72 hrs). Cells were grown for a period of 1-2 weeks to allow for formation of mineralized bone nodules.
SBMC cultures were assayed for AP activity using paranitrophenol-phosphate (pN-p) as the substrate as described above for CPO cultures. In some cases, AP activity was also measured using direct staining of SBMC cultures in 96 well plates as described previously (Tenenbaum et al., Anat Rec. 1995. 242(2):200-10). Mineralization in the SBMC cultures was determined using Alizarin Red staining in situ that was assessed with the Titertek spectrophotometer set at 525 nm.

[4] = system: chick periosteal osteogenesis (CPO) cultures; experiment: RT-PCR mRNA levels of bone proteins (AP, BSP, collagen type I, OPN) in CPO cultures
Experimental: as §1
The isolation of total RNA from periosteal cultures to determine affect of TCDD on message levels of bone proteins was accomplished using the QIAGEN Rneasy® kit and QIAShredder® (Hilden, Germany) according to the manufacturer's instructions. Total RNA (2 μg) was reverse transcribed using SuperScript II™ RNase H^− Reverse Transcriptase (Gibco BRL, City Country). PCR reactions were performed in […] reactions at a cycle number ensuring a linear amplification profile (BSP, 5 min at 94° C., 30 cycles [of 20 sec at 94° C., 20 sec at 55° C., 20 sec at 72° C.]; Collagen 5 min at 94° C., 30 cycles [of 20 sec 94° C. 20 sec 58° C., 20 sec 72° C.]; AP 5 min at 94° C., 30 cycles [of 20 sec 94° C., 20 sec 59° C., 20 sec 72° C.]; OPN 5 min at 85° C., 5 min at 94° C., 25 cycles [20 sec at 94° C., 20 sec at 60° C., 20 sec at 72° C.] 7 min at 72° C.). The oligonucleotides for BSP (sense: 5′-[…]-3′; antisense: 5′-[…]-3′) AP (sense: 5′-[…]-3′; antisense: 5′-[…]-3′), Collagen (sense: 5′-[…]-3′; antisense: 5′-[…]-3′); OPN (sense 5′-[…]-3′; antisense 5′-[…]-3′) were synthesized by Life Technologies (Gibco BRL, Rockville, Md.). PCR products were electrophoresed on 1.5 (wt/vol) % agarose gels with 0.1 μg/ml ethidium bromide. The gels were visualized on an UV transilluminator and photographed using 667 Polaroid film. The inverse images of the photographs were analyzed by densitometry. All values were normalized for the internal control, β-actin.

[5] = resveratrol 4×10^−8M to 3×10^−5M with TCDD

Clc1cc2c(cc1Cl)Oc1cc(Cl)c(Cl)cc1O2 [TCDD, 2,3,7,8-tetrachlorodibenzo-p-dioxin]
decrease in newly synthesized collagen type I levels ([1]; 10^−9M TCDD alone, p>0.05): about 30%
inhibition of osteogenic differentiation (APA) ([2]; TCDD, 6 day cultures, in comparison to CPO and RBMC): lower dose of TCDD was able to inhibit osteogenic differentiation
reduction in AP activity ([3]; TCDD 1.1×10^−9M): 33%
reduction in AP activity versus control ([3]; TCDD 3.3×10^−9M and higher): 33%
dose dependence of reduction in AP activity ([3]; TCDD 3.3×10^−9M to 4.12×10^−11M): dose dependant
AP activity ([3]; TCDD 4.12×10^−11M): not affected
reduction in mRNA for BSP ([4]; TCDD, p<0.05): ~4 fold
reduction of mRNA levels for OPN ([4]; TCDD, p<0.05): about 40%
reduction of mRNA levels for type I collagen in comparison to control ([4]; TCDD, p<0.05): 50%
reduction of message levels for AP in comparison to control ([4]; TCDD, p<0.05): about 50%

Oc1ccc(C=Cc2cc(O)cc(O)c2)cc1 [resveratrol, 3,5,4′-trihydroxystilbene]
newly synthesized collagen type I levels ([1]; 10^−6M resveratrol alone, compared to vehicle): no effect
newly synthesized collagen type I level ([1]; co-treatment with TCDD and resveratrol, versus TCDD alone): not significantly different
APA in comparison to control [2, 5]: appeared to stimulate APA
inhibition of TCDD-mediated inhibition of osteoblastic differentiation (APA) [2, 5]: able to inhibit TCDD-mediated inhibition of osteoblastic differentiation
effect on AP activity ([3]; increasing concentration of resveratrol, TCDD 4.12×10^−11M): had no effect
abrogation of TCDD effect on AP activity ([3]; resveratrol 4×10^−8M to 1×10^−5M, TCDD 1.1×10^−9M): abrogated the effects of TCDD
reversal of TCDD reduction in AP activity ([3]; resveratrol at various concentrations, TCDD 3.3×10^−9M and higher): not reversed
reversal of TCDD inhibition of BSP mRNA ([4]; TCDD with resveratrol): reversed completely
mRNA levels for OPN ([4]; both TCDD and resveratrol): restored
mRNA levels for Type I collagen ([4]; both TCDD and resveratrol, versus control): identical levels
message for BSP ([4]; resveratrol alone): partially down-regulate
message for collagen ([4]; resveratrol alone): partially down-regulate
